Patent publication US20130116287A1 (priority 2010, published 2013)

Tests used:
[1] = system: Phytophthora infestans; assay type: in vivo; details: 500 ppm of active ingredient; tomato, preventive; evaluated 7 days after inoculation; 100% = no disease
[2] = Measurement of logP values by HPLC on reversed phase columns (EEC directive 79/831 Annex V.A8); assay type: physicochemical; details: HPLC; for Log P: pH 2.7, 0.1% formic acid in water / acetonitrile, single value

Compound	efficacy [1] [%]	Log P [2]	Log P [I1] main isomer ([2]; pH 2.7, 0.1% formic acid)	Log P [I2] minor isomer ([2]; pH 2.7, 0.1% formic acid)	Log P (two values printed, isomers not assigned) ([2]; pH 2.7, 0.1% formic acid, two values without isomer tag)
Cc1snnc1C(=NOCc1csc(NC(=O)COCC2CCCCC2)n1)c1ccccc1 [Example 69]	97	4.93	–	–	–
CC(=O)OC(C)(C)C(=O)Nc1cccc(CON=C(c2ccccc2)c2nnsc2C)n1 (mixture of isomers) [Example 101]	95	–	3.48	3.35	–
Cc1snnc1C(=NOCc1cccc(NC(=O)COCC(C)C)n1)c1ccccc1 [Example 64]	98	4.44	–	–	–
Cc1snnc1C(=NOCc1cccc(NC(=O)C(C)SCc2ccccc2)n1)c1ccccc1 (stereo not drawn) [Example 99]	100	4.58	–	–	–
C=CCCOC(C)C(=O)Nc1nc(CON=C(c2ccccc2)c2nnsc2C)cs1 (stereo not drawn) [Example 19]	98	3.99	–	–	–
Cc1snnc1C(=NOCc1cccc(NC(=O)COc2ccc(Cl)cc2)n1)c1ccccc1 [Example 36]	100	4.49	–	–	–
Cc1snnc1C(=NOCc1csc(NC(=O)COCCC2CCCCC2)n1)c1ccccc1 [Example 83]	95	5.28	–	–	–
Cc1snnc1C(=NOCc1cccc(NC(=O)C(C)OCCC(C)C)n1)c1ccccc1 (stereo not drawn) [Example 50]	97	5.11	–	–	–
C=CCCOC(C)C(=O)Nc1cccc(CON=C(c2ccccc2)c2nnsc2C)n1 (stereo not drawn) [Example 20]	95	4.36	–	–	–
C=CCSCC(=O)Nc1nc(CON=C(c2ccccc2)c2nnsc2C)cs1 [Example 91]	95	3.52	–	–	–
C#CCOC(CC)C(=O)Nc1cccc(CON=C(c2ccccc2)c2nnsc2C)n1 (stereo not drawn) [Example 105]	95	3.9	–	–	–
Cc1snnc1C(=NOCc1csc(NC(=O)COc2ccc(Cl)cc2)n1)c1ccccc1 (mixture of isomers) [Example 33]	100	–	–	–	4.09
Cc1snnc1C(=NOCc1cccc(NC(=O)COCCC(C)C)n1)c1ccccc1 [Example 4]	93	–	–	–	–
Cc1snnc1C(=NOCc1csc(NC(=O)COc2ccccc2Cl)n1)c1ccccc1 (mixture of isomers) [Example 31]	95	–	4.19	4.06	–
C=CCSCC(=O)Nc1cccc(CON=C(c2ccccc2)c2nnsc2C)n1 [Example 92]	90	3.79	–	–	–
Cc1snnc1C(=NOCc1cccc(NC(=O)CSC2CCCCC2)n1)c1ccccc1 [Example 88]	97	4.87	–	–	–
Cc1snnc1C(=NOCc1csc(NC(=O)CSC2CCCCC2)n1)c1ccccc1 [Example 87]	97	4.46	–	–	–
Cc1snnc1C(=NOCc1cccc(NC(=O)CSCCc2ccccc2)n1)c1ccccc1 [Example 52]	97	4.53	–	–	–
Cc1snnc1C(=NOCc1cccc(NC(=O)C(C)(C)Oc2ccccc2)n1)c1ccccc1 [Example 103]	100	4.93	–	–	–
Cc1snnc1C(=NOCc1cccc(NC(=O)COCC2CCCCC2)n1)c1ccccc1 [Example 70]	89	5.45	–	–	–
CC(=O)OCC(=O)Nc1nc(CON=C(c2ccccc2)c2nnsc2C)cs1 (mixture of isomers) [Example 11]	–	–	2.78	2.68	–

Compound	efficacy [1] [%]	Log P [2]	Log P [I1] main isomer ([2]; pH 2.7, 0.1% formic acid)	Log P [I2] minor isomer ([2]; pH 2.7, 0.1% formic acid)	Log P (two values printed, isomers not assigned) ([2]; pH 2.7, 0.1% formic acid, two values without isomer tag)
Cc1snnc1C(=NOCc1cccc(NC(=O)COCCC2CCCC2)n1)c1ccccc1 [Example 78]	89	5.39	–	–	–
CCCCOC(C)C(=O)Nc1cccc(CON=C(c2ccccc2)c2nnsc2C)n1 (stereo not drawn) [Example 97]	97	–	–	–	–
Cc1snnc1C(=NOCc1cccc(NC(=O)COCc2ccccc2)n1)c1ccccc1 [Example 30]	95	4.29	–	–	–
Cc1snnc1C(=NOCc1cccc(NC(=O)COC(C)C)n1)c1ccccc1 [Example 66]	93	3.94	–	–	–
Cc1snnc1C(=NOCc1csc(NC(=O)C(C)SCc2ccccc2)n1)c1ccccc1 (stereo not drawn) [Example 98]	98	4.26	–	–	–
Cc1snnc1C(=NOCc1csc(NC(=O)CSc2ccccc2)n1)c1ccccc1 (mixture of isomers) [Example 5]	95	–	3.89	3.78	–
Cc1snnc1C(=NOCc1csc(NC(=O)CSCCc2ccccc2)n1)c1ccccc1 [Example 51]	–	4.24	–	–	–
Cc1snnc1C(=NOCc1cccc(NC(=O)C(C)OCC2CC2)n1)c1ccccc1 (stereo not drawn) [Example 40]	97	–	–	–	–
Cc1snnc1C(=NOCc1csc(NC(=O)CSCCC(C)C)n1)c1ccccc1 [Example 67]	95	4.41	–	–	–
Cc1snnc1C(=NOCc1csc(NC(=O)C(C)OCC2CCCC2)n1)c1ccccc1 (stereo not drawn) [Example 75]	100	4.9	–	–	–
CC(=O)OCC(=O)Nc1cccc(CON=C(c2ccccc2)c2nnsc2C)n1 (mixture of isomers) [Example 12]	70	–	2.93	2.82	–
CCCCOCC(=O)Nc1cccc(CON=C(c2ccccc2)c2nnsc2C)n1 [Example 22]	95	4.41	–	–	–
Cc1snnc1C(=NOCc1cccc(NC(=O)C(C)Oc2ccc(F)cc2)n1)c1ccccc1 (stereo not drawn) [Example 96]	97	–	–	–	–
C#CCOC(C)C(=O)Nc1cccc(CON=C(c2ccccc2)c2nnsc2C)n1 (stereo not drawn) [Example 14]	100	3.58	–	–	–
Cc1snnc1C(=NOCc1cccc(NC(=O)COc2ccccc2)n1)c1ccccc1 [Example 10]	98	4.11	–	–	–
Cc1snnc1C(=NOCc1cccc(NC(=O)COCC2CCC2)n1)c1ccccc1 [Example 54]	97	4.54	–	–	–
CC(=O)OC(C)(C)C(=O)Nc1nc(CON=C(c2ccccc2)c2nnsc2C)cs1 (mixture of isomers) [Example 100]	95	–	3.35	3.25	–
C=CCCOCC(=O)Nc1nc(CON=C(c2ccccc2)c2nnsc2C)cs1 [Example 37]	98	3.68	–	–	–
C#CCOC(C)C(=O)Nc1nc(CON=C(c2ccccc2)c2nnsc2C)cs1 (stereo not drawn) [Example 13]	100	3.29	–	–	–
CC(=NOCC(=O)Nc1cccc(CON=C(c2ccccc2)c2nnsc2C)n1)c1ccccc1 [Example 112]	95	4.51	–	–	–
Cc1snnc1C(=NOCc1cccc(NC(=O)C(C)OCC(C)C)n1)c1ccccc1 (stereo not drawn) [Example 86]	95	4.83	–	–	–

Compound	efficacy [1] [%]	Log P [2]	Log P [I1] main isomer ([2]; pH 2.7, 0.1% formic acid)	Log P [I2] minor isomer ([2]; pH 2.7, 0.1% formic acid)	Log P (two values printed, isomers not assigned) ([2]; pH 2.7, 0.1% formic acid, two values without isomer tag)
Cc1snnc1C(=NOCc1cccc(NC(=O)C(C)OCc2ccccc2)n1)c1ccccc1 (stereo not drawn) [Example 94]	95	4.58	–	–	–
Cc1snnc1C(=NOCc1csc(NC(=O)CSC2CCCC2)n1)c1ccccc1 [Example 106]	92	4.14	–	–	–
Cc1snnc1C(=NOCc1csc(NC(=O)COCC2CCCCO2)n1)c1ccccc1 (stereo not drawn) [Example 71]	90	3.76	–	–	–
C#CCOCC(=O)Nc1nc(CON=C(c2ccccc2)c2nnsc2C)cs1 [Example 47]	95	3.04	–	–	–
Cc1snnc1C(=NOCc1csc(NC(=O)COCC2CCCC2)n1)c1ccccc1 [Example 108]	100	4.53	–	–	–
Cc1snnc1C(=NOCc1cccc(NC(=O)COc2ccccc2)n1)c1ccccc1 (mixture of isomers) [Example 9]	95	–	4.14	4.01	–
Cc1snnc1C(=NOCc1cccc(NC(=O)COc2ccc(Cl)cc2)n1)c1ccccc1 (mixture of isomers) [Example 35]	95	–	4.51	–	–
COc1ccccc1OCC(=O)Nc1cccc(CON=C(c2ccccc2)c2nnsc2C)n1 (mixture of isomers) [Example 58]	95	–	4.24	4.11	–
Cc1snnc1C(=NOCc1csc(NC(=O)COc2ccc(Cl)cc2)n1)c1ccccc1 [Example 34]	100	4.19	–	–	–
Cc1snnc1C(=NOCc1cccc(NC(=O)COc2ccccc2Cl)n1)c1ccccc1 (mixture of isomers) [Example 32]	93	–	4.61	4.49	–
Cc1snnc1C(=NOCc1csc(NC(=O)COc2ccc(I)cc2)n1)c1ccccc1 [Example 45]	100	4.44	–	–	–
Cc1snnc1C(=NOCc1cccc(NC(=O)C(C)OCC2CCC2)n1)c1ccccc1 (stereo not drawn) [Example 111]	–	4.93	–	–	–
Cc1snnc1C(=NOCc1csc(NC(=O)C(C)OCCC(C)C)n1)c1ccccc1 (stereo not drawn) [Example 49]	98	4.68	–	–	–
Cc1snnc1C(=NOCc1csc(NC(=O)C(C)OCC2CCC2)n1)c1ccccc1 (stereo not drawn) [Example 110]	–	4.49	–	–	–
Cc1snnc1C(=NOCc1cccc(NC(=O)COCc2ccccc2)n1)c1ccccc1 (mixture of isomers) [Example 29]	93	–	4.34	–	–
Cc1snnc1C(=NOCc1cccc(NC(=O)COc2cccc(Cl)c2)n1)c1ccccc1 (mixture of isomers) [Example 43]	–	–	4.53	4.41	–
Cc1snnc1C(=NOCc1cccc(NC(=O)COCC2CCCCO2)n1)c1ccccc1 (stereo not drawn) [Example 72]	75	3.92	–	–	–
Cc1snnc1C(=NOCc1cccc(NC(=O)COC2CCCC2)n1)c1ccccc1 [Example 24]	95	4.51	–	–	–
Cc1snnc1C(=NOCc1cccc(NC(=O)COc2ccc(I)cc2)n1)c1ccccc1 [Example 46]	100	–	–	–	–
Cc1snnc1C(=NOCc1cccc(NC(=O)CSCCC(C)C)n1)c1ccccc1 [Example 68]	95	–	–	–	–
